Experimental data as given in US20150307508A1, “Application of an alkaloid derived from a Chinese herbal for treatment of cancer by inhibiting cholesterol synthesis and fatty acid oxidation” (Macau University of Science and Technology, priority 2014, published 2015).
Where “and” joins values, the source holds several entries; their conditions need not be identical. Equal entries are not always repeated.

Experiments:
H1975 (EGFR^L858R+T790M) = test: MTT cytotoxicity assay, H1975; format: cell-based; conditions: Homo sapiens, NCI-H1975, H1975, 72 hrs, read-out: IC50 value after 72 hrs of treatment
Source text: (§1) This example described the BBR-induced cytotoxicity effect in six NSCLC cell lines utilizing MTT cytotoxicity assay. A549 is wild type EGFR and BEAS-2B is normal lung epithelial cells.

[1] = test system: H1650 (EGFR^Exon19 deletion); test: MTT cytotoxicity assay, H1650; format: cell-based; conditions: Homo sapiens, NCI-H1650, H1650, 72 hrs, read-out: IC50 value after 72 hrs of treatment
Source text: as §1

H1819 [2] = test: MTT cytotoxicity assay, H1819; format: cell-based; conditions: Homo sapiens, NCI-H1819, H1819, 72 hrs, read-out: IC50 value after 72 hrs of treatment
Source text: as §1

HCC827 = test: MTT cytotoxicity assay, HCC827; format: cell-based; conditions: Homo sapiens, HCC827, 72 hrs, read-out: IC50 value after 72 hrs of treatment
Source text: as §1

A549 (EGFR^Wild type) = test: MTT cytotoxicity assay, A549; format: cell-based; conditions: Homo sapiens, A549, 72 hrs, read-out: IC50 value after 72 hrs of treatment
Source text: as §1

[3] = test system: BEAS-2B (Normal lung epithelial cell); test: MTT cytotoxicity assay, BEAS-2B; format: cell-based; conditions: Homo sapiens, 72 hrs, read-out: IC50 value after 72 hrs of treatment
Source text: as §1

H1650 cells [4] = test: Cell cycle analysis of H1650; format: cell-based, human; conditions: 72 hrs
Source text: (§2) The anticancer effect of berberine against two most BBR sensitive cell lines are further studied in Example 8, namely H1975 (EGFR^L858R+T790M) and H1650 (EGFR^Exon19 deletion).

H1975 cells [5] = test: Cell cycle analysis of H1975; format: cell-based, human; conditions: 72 hrs
Source text: as §2

CCNB1 = test: Western blot analysis of CCNB1 protein level in H1975 cells; format: cell-based, human; conditions: 72 hrs
CCND1 = test: Western blot analysis of CCND1 protein level in H1975 cells; format: cell-based, human; conditions: 72 hrs
CPT1C = test: Real-time PCR analysis of CPT1C RNA expression; format: cell-based, human; conditions: 24 hrs
Experimental: (§3) The RNA expression levels of CPT1C and SREBP1 in both H1975 and H1650 cell lines after being treated with 10 μM BBR for 24 hrs were analyzed by Real-time PCR analysis and Western blot analysis, as shown in FIGS. 2A-2D.

SREBP1 = test: Real-time PCR analysis of SREBP1 RNA expression; format: cell-based, human; conditions: 24 hrs
Experimental: as §3

H1975 cells [6] = test: Thin-layer chromatography of total cellular lipid, H1975; format: cell-based, human; conditions: H1975, 5 μM, 72 hours
Experimental: (§4) Cells were scraped from culture dish and resuspended in 2 ml PBS containing 1× protease inhibitor and 1 mM PMSF. Total cellular lipid was extracted by adding 4 ml chloroform/methanol (2:1). The mixture was vortexed for 1 min and centrifuged at 1500 g×5 min. The organic phase was collected and another 2.5 ml choloroform was added to the residual aqueous phase; the mixture was vortexted and centrifuged at 1500 g×5 min again. The organic phase was collected together with the previous extraction. Thin layer chromatography (TLC) was performed by spotting of the cellular total lipid extract to a 5×10 cm silica gel aluminum sheet and developed with hexane/diethyl ether/acetic acid (80:20:2). Lipids were visualized with iodine vapor and imaged using a desktop scanner
(§5) The overall lipid levels in H1975 and H1650 treated by Berberine were studied in this example. H1975 and H1650 cells were treated with 5 μM BBR for 72 hours and then total cellular lipid was extracted.

H1650 cells [7] = test: Thin-layer chromatography of total cellular lipid, H1650; format: cell-based, human; conditions: H1650, 5 μM, 72 hours
Experimental: as §4, §5

H1975 = conditions: cited from earlier work
H1650 = conditions: cited from earlier work
H1819 [8] = conditions: cited from earlier work
[9] = test system: BEAS-2B (Normal lung epithelial cell); conditions: cited from earlier work

COc1ccc2cc3[n+](cc2c1OC)CCc1cc2c(cc1-3)OCO2 [BBR, berberine]
IC50 (H1975 (EGFR^L858R+T790M)): 2.92 ± 0.49 µM
IC50 [1]: 6 ± 2.78 µM
IC50 (H1819 [2]): 6.51 ± 2.09 µM
IC50 (HCC827): 8.9 ± 4.4 µM
IC50 (A549 (EGFR^Wild type)): 11.2 ± 3.98 µM
IC50 [3]: 24.7 ± 12.4 µM
decrease of percentage of G0/G1 phase vs control (H1650 cells [4]; H1650, 5 μM): 21.1%
decrease of percentage of G0/G1 phase vs control (H1650 cells [4]; H1650, 10 μM): 18.3%
decrease of percentage of G0/G1 phase vs control (H1975 cells [5]; H1975, 5 μM): 11.5%
increase of G2 phase vs control (H1975 cells [5]; H1975, 5 μM): 11%
decrease of percentage of G0/G1 phase vs control (H1975 cells [5]; H1975, 10 μM): 14%
increase of G2 phase vs control (H1975 cells [5]; H1975, 10 μM): 15.73% and 15.7%
protein level of CCNB1 (Western blot) (CCNB1): down-regulated
protein level of CCND1 (Western blot) (CCND1): down-regulated
increase of RNA expression level of CPT1C vs vehicle control (CPT1C; H1650, 10 μM): 5.92 times
increase of RNA expression level of CPT1C vs vehicle control (CPT1C; H1975, 10 μM): 2.005 times
decrease of RNA expression level of SREBP1 vs vehicle control (SREBP1; H1650, 10 μM): 2.64 times
decrease of RNA expression level of SREBP1 vs vehicle control (SREBP1; H1975, 10 μM): 9.23 times
overall lipid levels (TLC) (H1975 cells [6]): lower the overall lipid levels
overall lipid levels (TLC) (H1650 cells [7]): lower the overall lipid levels

COc1cc2ncnc(Nc3ccc(F)c(Cl)c3)c2cc1OCCCN1CCOCC1 [Gefitinib]
Gefitinib Sensitivity (H1975): Resistant
Gefitinib Sensitivity (H1650): Resistant
Gefitinib Sensitivity (H1819 [8]): Moderately sensitive
Gefitinib Sensitivity [9]: Resistant
